For orientation: EC50 means the concentration at which the effect is half-maximal.

Each structure is given as a SMILES string.

The source of these data is article PMC9323797, “4-Substituted Thieno[3,2-d]pyrimidines as Dual-Stage Antiplasmodial Derivatives” (Pharmaceuticals, 2022).

Test system in one data set: not listed separately
The data set is described as follows: Cytotoxic evaluation on HepG2 cell line (MTT, 72 h). The format is cell-based, human. The note with it: HepG2 cells (hepatocarcinoma cell line, ATCC HB-8065); human hepatoma cell line HepG2, MTT, 72 h, mean ± SD of three independent experiments. How it is done:
The HepG2 cell line (hepatocarcinoma cell line purchased from ATCC, ref HB-8065) was maintained at 37 °C, 5% CO2, with 90% humidity in MEM supplemented with 10% fetal bovine serum, 1% L-glutamine (200 mM), penicillin (100 U/mL), and streptomycin (100 μg/mL) (complete MEM medium). The evaluation of the cytotoxicity of the tested molecules was performed according to the method of Mosmann, with slight modifications. Briefly, 5.103 cells in 100 μL of the complete medium were inoculated into each well of a 96-well plate and incubated at 37 °C in a humidified 5% CO2. After 24 h incubation, 100 μL of medium with various product concentrations dissolved in DMSO (final concentration less than 0.5% v/v) was added and the plates were incubated for 72 h at 37 °C. Triplicate assays were performed for each sample. Each plate well was then microscope-examined for detecting possible precipitate formation before the medium was aspirated from the wells. A total of 100 μL of MTT (3-(4,5-dimethyl-2-thiazolyl)-2,5-diphenyl-2H-tetrazolium bromide) solution (0.5 mg/mL in medium without FCS) was then added to each well. Cells were incubated for 2 h at 37 °C. After this time, the MTT solution was removed and DMSO (100 μL) was added to dissolve the resulting blue formazan crystals. Plates were shaken vigorously (700 rpm) for 10 min. The absorbance was measured at 570 nm, with 630 nm as a reference wavelength using a TECAN Infinite F-200 Microplate Reader. DMSO was used as a blank and doxorubicin (purchased from Sigma Aldrich, St. Louis, MO, USA) was used as a positive control. Cell viability was calculated as a percentage of control (cells incubated without compound). The 50% cytotoxic concentration (CC50) was determined from the dose–response curve by using the TableCurve software 2D v.5.0. CC50 values represent the mean value calculated from three independent experiments.
Take `Cc1ccc(-c2cc3nc(NC(C)(C)C)nc(I)c3s2)cc1` [Compound 6, N-(Tert-butyl)-4-iodo-6-(p-tolyl)thieno[3,2-d]pyrimidin-2-amine]: the CC50 at 72 h came out at 29 ± 5.5 µM.
Same read-out and setting: in the case of `COCCNc1nc(NC(C)(C)C)nc2cc(-c3ccc(C)cc3)sc12` [Compound 10g, N^2-(tert-butyl)-N^4-(2-methoxyethyl)-6-(p-tolyl)thieno[3,2-d]pyrimidine-2,4-diamine] it was 3.7 ± 0.9 µM; in that of `Cc1ccc(-c2cc3nc(NC(C)(C)C)nc(NCCCCO)c3s2)cc1` [Compound 10f, 4-((2-(tert-butylamino)-6-(p-tolyl)thieno[3,2-d]pyrimidin-4-yl)amino)butan-1-ol], 2.9 ± 1.1 µM.

The next data set has as its system P. falciparum K1.
Assay: not given
On the set-up: method as in PMID 25791675. The note with it: asexual blood stages, K1 strain; cited from earlier work.
Regarding `C[C@H]1c2cccc(O)c2C(=O)C2=C(O)[C@]3(O)C(=O)C(C(N)=O)=C(O)[C@@H](N(C)C)[C@@H]3[C@@H](O)[C@@H]21` [Doxycycline], the EC50 is 5000 nM.
Turning to `Cc1ccc(-c2cc3nc(NC(C)(C)C)[nH]c(=O)c3s2)cc1` [Compound 1, Gamhepathiopine, reference compound], the EC50 was 200 ± 20 nM.

Another data set concerns HepG2.
Assay: not given
On the set-up: method as in PMID 25791675. The note with it: cited from earlier work.
`Cc1ccc(-c2cc3nc(NC(C)(C)C)[nH]c(=O)c3s2)cc1` [Compound 1, Gamhepathiopine, reference compound]: the CC50 was 25.6 ± 3.1 µM.

The subject of a further data set is Primary Simian Hepatocytes. The data set is described as follows: Cytotoxicity on primary simian hepatocytes (DAPI count of host cell nuclei). Type of data set: cell-based, Macaca fascicularis. The note with it: count of total cell nuclei, mean ± SD of three independent experiments. How it is done:
(§1) Primary simian hepatocytes were isolated from liver segments collected from healthy Macaca fascicularis from CEA, Fontenay aux Roses, France. All hepatocytes were obtained using collagenase perfusion, as previously described, and were immediately cryopreserved. One day before infection, the cryopreserved hepatocytes were thawed at 37 °C and were seeded into collagen-coated (5 µg/cm^2 rat tail collagen I, Invitrogen, Carlsbad, CA, USA) 96-well plate, at a density of 80,000 cells per well. They were cultured at 37 °C in 5% CO2 in William’s E medium (Gibco, Life Technologies, Saint Aubin, France) supplemented with 10% of Fetal Bovine Serum FCIII, 5 × 10^–5 M hydrocortisone hemisuccinate (Serb Laboratories, Paris, France), 5 μg per ml bovine insulin (Sigma Aldrich, St. Louis, MO, USA), 2 mM L-glutamine, and 0.02 U per ml-0.02 μg per ml penicillin-streptomycin (Life Technologies) until infection with sporozoites.
(§2) Sporozoites of P. berghei were re-suspended in the above complete medium used for the hepatocytes culture. Simian hepatocytes were inoculated in 50 μL of complete media with 20,000 P. berghei-sporozoites/well in 96-well plates. The infected culture plates were centrifuged for 10 min at 900× g to allow fast parasite sedimentation onto the target cells and were further incubated with the serial dilution of drugs that were prepared in advance. After 3 h of incubation, cultures were washed and further incubated in a fresh medium containing the appropriate drug concentration, which were changed every 24 h during the study period. Cultured hepatocytes were fixed using 4% paraformaldehyde (PFA) for 15 min at room temperature. Host cell and parasite nuclei were labelled with 4′,6-diamidino-2-phenylindole (DAPI). Upon fixation and immunostaining, cell culture plates were analyzed in order to determine the number and size of the parasites using a Cell Insight High Content Screening platform equipped with the Studio HCS software (Thermo Fisher Scientific, Waltham, MA, USA). The parasite size reduction was calculated on the average object area using the total surface area of each selected object (μm^2). To assess the cell toxicity of drugs for hepatic cultures, fixed plates were further scanned for the DAPI signal representing host nuclei. The analysis was based on counting of total cell nuclei. GraphPad Prism 7 statistical software (GraphPad. Software, San Diego, CA, USA) was used for data analysis and graphing. All values were expressed as means and standard deviations (SD).
In the case of `COCCNc1nc(NC(C)(C)C)nc2cc(-c3ccc(C)cc3)sc12` [Compound 10g, N^2-(tert-butyl)-N^4-(2-methoxyethyl)-6-(p-tolyl)thieno[3,2-d]pyrimidine-2,4-diamine], the “Primary Simian Hepatocytes CC50” value is given as “cytotoxic”.

Test system in the next data set: not listed separately
Described as above. Type of data set: cell-based, Macaca fascicularis. The note with it: Macaca fascicularis, count of total cell nuclei, mean ± SD of three independent experiments. How it is done:
as §1, §2
Compound `Cc1ccc(-c2cc3nc(NC(C)(C)C)[nH]c(=O)c3s2)cc1` [Compound 1, Gamhepathiopine, reference compound] had a CC50 above 200 µM.
On the same count and under the same terms, in the case of `Cc1ccc(-c2cc3nc(NC(C)(C)C)nc(I)c3s2)cc1` [Compound 6, N-(Tert-butyl)-4-iodo-6-(p-tolyl)thieno[3,2-d]pyrimidin-2-amine] it was above 100 µM.
On the same count and under the same terms, in the case of `COCCNc1nc(NC(C)(C)C)nc2cc(-c3ccc(C)cc3)sc12` [Compound 10g, N^2-(tert-butyl)-N^4-(2-methoxyethyl)-6-(p-tolyl)thieno[3,2-d]pyrimidine-2,4-diamine] it was 7.8 ± 2.3 µM; in that of `Cc1ccc(-c2cc3nc(NC(C)(C)C)nc(NCCCCO)c3s2)cc1` [Compound 10f, 4-((2-(tert-butylamino)-6-(p-tolyl)thieno[3,2-d]pyrimidin-4-yl)amino)butan-1-ol], 17.7 ± 1.9 µM.

The test system of the next data set is P. berghei. As to the kind of experiment: Hepatic-stage antiplasmodial evaluation (PbGFP sporozoites in primary simian hepatocytes, high content imaging). Type of data set: cell-based. As to conditions: Plasmodium berghei, Hepatocyte, mean ± SD of three independent experiments.
Source text: P. berghei sporozoites constitutively expressing green fluorescent protein (PbGFP, ANKA strain) were obtained by the dissection of salivary glands from infected Anopheles stephensi mosquitoes bred and infected in the insectary facilities of UMR-S 1135 (CIMI, Paris, France). Infected salivary glands were removed by hand dissection, crushed in a potter, and filtered through a 40 μm filter for sporozoite isolation (Cell Strainer, BD BioSciences, San Jose, CA, USA). The sporozoites were counted using a disposable plastic microscope slide (KOVA).
as §1, §2
Consider `Cc1ccc(-c2cc3nc(NC(C)(C)C)[nH]c(=O)c3s2)cc1` [Compound 1, Gamhepathiopine, reference compound], for which the EC50 stood at 24.3 ± 1.6 µM.
In turn, `Cc1ccc(-c2cc3nc(NC(C)(C)C)nc(I)c3s2)cc1` [Compound 6, N-(Tert-butyl)-4-iodo-6-(p-tolyl)thieno[3,2-d]pyrimidin-2-amine] showed an EC50 of 26.7 ± 5.6 µM.
Still for that read-out and setting: to `COCCNc1nc(NC(C)(C)C)nc2cc(-c3ccc(C)cc3)sc12` [Compound 10g, N^2-(tert-butyl)-N^4-(2-methoxyethyl)-6-(p-tolyl)thieno[3,2-d]pyrimidine-2,4-diamine] belongs around 5 µM; to `Cc1ccc(-c2cc3nc(NC(C)(C)C)nc(NCCCCO)c3s2)cc1` [Compound 10f, 4-((2-(tert-butylamino)-6-(p-tolyl)thieno[3,2-d]pyrimidin-4-yl)amino)butan-1-ol], around 15 µM.

Staying with this data set, now noted: mean ± SD of three independent experiments.
As for `COCCNc1nc(NC(C)(C)C)nc2cc(-c3ccc(C)cc3)sc12` [Compound 10g, N^2-(tert-butyl)-N^4-(2-methoxyethyl)-6-(p-tolyl)thieno[3,2-d]pyrimidine-2,4-diamine], the concentration giving a half-maximal response (EC50) was 6.3 ± 0.2 µM.
In turn, `Cc1ccc(-c2cc3nc(NC(C)(C)C)nc(NCCCCO)c3s2)cc1` [Compound 10f, 4-((2-(tert-butylamino)-6-(p-tolyl)thieno[3,2-d]pyrimidin-4-yl)amino)butan-1-ol] came in with an EC50 of 14.1 ± 1.9 µM.

A further data set deals with P. falciparum K1. The data set is described as follows: Blood-stage antiplasmodial evaluation (SYBR Green I fluorescence, 72 h). The format is cell-based, Plasmodium falciparum. The note with it: Plasmodium falciparum, K1, 72 h, asexual blood stages, drug-resistant K1 strain, 72 h incubation, mean ± SD of three independent experiments; read-out: P. falciparum K1 EC50. As for the experimental part:
A K1 culture-adapted P. falciparum strain resistant to chloroquine, pyrimethamine, and proguanil was used in an in vitro culture. It was maintained in a continuous culture, as described previously by Trager and Jensen. Cultures were maintained in fresh A+ human erythrocytes at 2.5% hematocrit in a complete medium (RPMI 1640 with 25 mM HEPES, 25 mM NaHCO3, and 10% of A+ human serum) at 37 °C under a reduced O2 atmosphere (gas mixture: 10% O2, 5% CO2, and 85% N2). Parasitemia was maintained daily between 1 and 3%. The P. falciparum drug susceptibility test was carried out by comparing quantities of DNA in treated and control cultures of parasite in human erythrocytes, according to a SYBR Green I fluorescence-based method using a 96-well fluorescence plate reader. Compounds, previously dissolved in DMSO (final concentration less than 0.5% v/v), were incubated in a total assay volume of 200 μL (RPMI, 2% hematocrit and 0.4% parasitemia) for 72 h in a humidified atmosphere (10% O2 and 5% CO2) at 37 °C, in 96-well flat bottom plates. Duplicate assays were performed for each sample. After incubation, plates were frozen at […] for 24 h. Then, the frozen plates were thawed for 1 h at 37 °C. A total of 15 μL of each sample was transferred to 96-well flat-bottom non-sterile black plates (Greiner Bio-One, Kremsmünster, Austria) already containing 15 μL of the SYBR Green I lysis buffer (2X SYBR Green I, 20 mM Tris base pH 7.5, 20 mM EDTA, 0.008% w/v saponin, 0.08% w/v Triton X-100). Negative control treated by solvents (DMSO or H2O) and positive controls (chloroquine) were added to each set of experiments. Plates were incubated for 15 min at 37 °C and then read on a TECAN Infinite F-200 spectrophotometer with excitation and emission wavelengths at 485 and 535 nm, respectively. The concentrations of compounds required to induce a 50% decrease in parasite growth (EC50 K1) were calculated from three independent experiments.
Regarding `COCCNc1nc(NC(C)(C)C)nc2cc(-c3ccc(C)cc3)sc12` [Compound 10g, N^2-(tert-butyl)-N^4-(2-methoxyethyl)-6-(p-tolyl)thieno[3,2-d]pyrimidine-2,4-diamine], the concentration for a half-maximal effect (EC50) amounted to 800 ± 200 nM.
The same measure, in the same setting: to `Cc1ccc(-c2cc3nc(NC(C)(C)C)nc(NCCCCO)c3s2)cc1` [Compound 10f, 4-((2-(tert-butylamino)-6-(p-tolyl)thieno[3,2-d]pyrimidin-4-yl)amino)butan-1-ol] belongs 700 ± 100 nM.

Still in this data set, the particulars now being: asexual blood stages, drug-resistant K1 strain, 72 h incubation, mean ± SD of three independent experiments.
Turning to `Cc1ccc(-c2cc3nc(NC(C)(C)C)nc(I)c3s2)cc1` [Compound 6, N-(Tert-butyl)-4-iodo-6-(p-tolyl)thieno[3,2-d]pyrimidin-2-amine], the “P. falciparum K1 EC50” value is “submicromolar range”.
On the same count and under the same terms, in the case of `COCCNc1nc(NC(C)(C)C)nc2cc(-c3ccc(C)cc3)sc12` [Compound 10g, N^2-(tert-butyl)-N^4-(2-methoxyethyl)-6-(p-tolyl)thieno[3,2-d]pyrimidine-2,4-diamine] it was “micromolar range”; in that of `Cc1ccc(-c2cc3nc(NC(C)(C)C)nc(NCCCCO)c3s2)cc1` [Compound 10f, 4-((2-(tert-butylamino)-6-(p-tolyl)thieno[3,2-d]pyrimidin-4-yl)amino)butan-1-ol], “micromolar range”.
